Results as given in patent US11577010B2, “Hemostatic devices and methods of use” (priority 2017, dated 2023).
One block for each molecule: values may come before it.

Legend:
[1] = stability of rifampin and minocycline in PBS with and without tranexamic acid (Example 14); type: physicochemical; conditions: regardless of temperature (RT about 23° C. and 37° C.)
Protocol: The mixtures were tested both at room temperature (RT) (about 23° C.) and at 37° C.

[2] = in vitro elution of rifampin and minocycline from p22-27.5 polymers with TXA in release media (Example 15); type: physicochemical; conditions: PBS pH 7.4 without or with TXA 0.05 mg/mL or 5 mg/mL, over 25 hours
Protocol: B1=PBS pH 7.4; B2=PBS, pH 7.4+TXA (0.05 mg/mL); B3=PBS, pH 7.4+TXA (5 mg/mL).

[3] = tested on: blood; experiment: in vitro blood clotting time with different amounts of TXA in presence of TYRX (Example 17); type: biochemical; conditions: higher amounts of TXA (1.6 mg TXA vs 200 mg of TXA), in the presence of TYRX
Protocol: Tests were conducted to compare the time required to induce blood clotting in vitro when different amounts of hemostatic agent is administered in the presence of TYRX (degradable mesh coated with P22-27.5 containing rifampin and minocycline), as shown in FIG. 40. Clotting time was […] when higher amounts of TXA was present (1.6 mg TXA vs 200 mg of TXA), as shown below in FIG. 44.

[4] = given preoperatively; cited from earlier work
[5] = tested on: blood; experiment: in vitro time required to induce blood clotting (Example 18); type: biochemical; conditions: 1.2 mg of TXA alone
Protocol: Tests were conducted to compare the time required for different hemostatic agents to induce blood clotting in vitro versus the time required to induce blood clotting in vitro when no hemostatic agent is administered. In particular, the time required to induce blood clotting was plotted for blood alone, a polymer in the p22-xx family (P22-27.5-TYRX), Surgicel, a polymer in the p22-xx family (P22-27.5-TYRX) with 1.6 mg of TXA, 1.2 mg of TXA alone and a polymer in the p22-xx family (P22-27.5-TYRX) with X mg of TXA.
Tests were conducted to compare the time required for different hemostatic agents to induce blood clotting in vitro versus the time required to induce blood clotting in vitro when no hemostatic agent is administered. In particular, the time required to induce blood clotting was plotted for blood alone, TYRX, Surgicel, TYRX with 1.6 mg of TXA, 1.2 mg of TXA alone and TYRX with 200 mg of TXA. In this example, TYRX refers to a Glycoprene mesh that is coated with P22-27.5 (a polymer in the P22-X family) containing Rifampin and Minocycline.

[6] = tested on: myofibroblast formation; conditions: Ajmal et al. (2003) Plast. Reconstr. Surg. 112:1455-1461; cited from earlier work

- percentage area of rifampin, mixtures with vs without tranexamic acid [1]: substantially the same
- elution rates, effect of TXA in the release media [2]: not effected
Compound: CO[C@H]1/C=C/O[C@@]2(C)Oc3c(C)c(O)c4c(O)c(c(/C=N/N5CCN(C)CC5)c(O)c4c3C2=O)NC(=O)/C(C)=C\C=C\[C@H](C)[C@H](O)[C@@H](C)[C@@H](O)[C@@H](C)[C@H](OC(C)=O)[C@@H]1C [rifampin]

Compound: NC[C@H]1CC[C@H](C(=O)O)CC1 [tranexamic acid]
- Clotting time [3]: increased
- time to reach plasma concentrations [4]: 5 to 15 min
- time to induce blood clotting [5]: about 19 minutes

Compound: O=S(=O)([O-])CCS.[Na+] [MESNA, sodium 2-mercaptoethane sulfonate]
- myofibroblast formation [6]: diminish myofibroblast formation
